Read-outs that look alike come from different tables or passages of the source.
Experiments:
[1] = human, in vivo
[2] = in vivo
[3] = human, in vivo; remark: listed apart in the source
[4] = human, in vivo; remark: listed apart in the source
[5] = test system: pediatric subjects 12 to <24 months; conditions: in vivo
[6] = for CL, Predicted Typical Value / Volume of Distribution, Predicted Typical Value / Weight-Adjusted CL, Predicted Typical Value / Weight-Adjusted V, Predicted Typical Value: model-predicted
clinical [7] = conditions: human, in vivo
clinical [8] = conditions: human, in vivo; remark: listed apart in the source
clinical [9] = conditions: human, in vivo; remark: listed apart in the source
clinical [10] = conditions: human, in vivo; remark: listed apart in the source
[11] = cited from earlier work
[12] = cited from earlier work; remark: listed apart in the source
[13] = Dose Level 1, LD 0.25/CD 0.2 μg/kg/hr, full evaluable population
[14] = Dose Level 2, LD 0.50/CD 0.4 μg/kg/hr, full evaluable population
[15] = Dose Level 3, LD 1.00/CD 0.7 μg/kg/hr, full evaluable population
[16] = Dose Level 4, LD 1.00/CD 2.00 μg/kg/hr, full evaluable population
[17] = Table 30 key summary (mean), Dose Level 1, LD 0.25/CD 0.2 μg/kg/hr, full evaluable population
[18] = Table 30 key summary (mean), Dose Level 2, LD 0.50/CD 0.4 μg/kg/hr, full evaluable population
[19] = Table 30 key summary (mean), Dose Level 3, LD 1.00/CD 0.7 μg/kg/hr, full evaluable population
[20] = Table 30 key summary (mean), Dose Level 4, LD 1.00/CD 2.00 μg/kg/hr, full evaluable population
[21] = final population PK model, Examples 5, 3, 1 and 7
[22] = Su et al. model, subject 7.7 months, 7 kg, total bypass time 57 minutes
[23] = noncompartmental analysis of the adult long-term use data
[24] = population PK of 4 pooled pediatric intensive care studies (1 week to 14 years)
[25] = typical subject, adult population PK analysis of long-term (>24 h) use

Cc1cccc([C@H](C)c2cnc[nH]2)c1C [dexmedetomidine]
AUC (0-Infinity)Dose [1]: 2102.55 (n = 2) (pg/mL)hr/μg
AUC (0-Last) [1]: 813.26 (pg/mL)hr
Vdw [1]: 3.47 (n = 2) L/kg
dose-adjusted AUC (0-Infinity), additional cohort versus age group II [1]: 4.6 times higher
t1/2 [1]: 8 h
Css Mean [13]: 402.026 µg/mL
Css Median [13]: 197.991 µg/mL
λz Mean [13]: 0.469 h⁻¹
λz Median [13]: 0.446 h⁻¹
Css Mean [14]: 539.848 µg/mL
Css Median [14]: 513.902 µg/mL
λz Mean [14]: 0.408 h⁻¹
λz Median [14]: 0.411 h⁻¹
Css Mean [15]: 1347.284 µg/mL
Css Median [15]: 947.907 µg/mL
λz Mean [15]: 0.369 h⁻¹
λz Median [15]: 0.386 h⁻¹
Css Mean [16]: 2827.144 µg/mL
Css Median [16]: 2665.409 µg/mL
λz Mean [16]: 0.360 h⁻¹
λz Median [16]: 0.326 h⁻¹
Css [17]: 0.402 ng/mL
λz [17]: 0.5 h⁻¹
Css [18]: 0.5398 ng/mL
λz [18]: 0.4 h⁻¹
Css [19]: 1.3473 ng/mL
λz [19]: 0.4 h⁻¹
Css [20]: 2.8271 ng/mL
λz [20]: 0.4 h⁻¹
Css (human, in vivo): 5.74355e+09 ng/mL
dose proportionality of AUC and Cmax (human, in vivo): dose proportionality and a linear relationship
power-model slope (95% confidence interval) for AUC0-inf ([2]; human): 1.263 (0.820, 1.706)
power-model slope (95% confidence interval) for Cmax ([2]; human): 0.898 (0.652, 1.143)
pharmacokinetic linearity / dose proportionality [2]: linearity and dose proportionality
CL, predicted [3]: 47.8 L/h
Exponent of power relationship between Q and age, Population Mean [3]: −0.509
IIV in Q [3]: 117 % CV
Proportional shift in allometric exponent for Vc for neonates, Population Mean [3]: 0.513
Q, model value [3]: 68.21 L/h
Slope of linear age effect on Vp, Population Mean [3]: −1.43 L/y
Vc, model value [3]: 6.22 L
Vp, model value [3]: 13.21 L
interindividual variability in CL, Vc, and Vp [3]: 35-55 % CV
terminal elimination (β) half-life [3]: 1.8 h
unexplained interindividual variability (IIV) in Q [3]: 163 % CV
volume of distribution, predicted [3]: 114.6 L
t1/2, Mean [4]: 2.260 h
subjects with treatment-emergent adverse events ([5]; human): 20.0%
safety and tolerability [5]: safe and well tolerated
Magnitude of Interindividual Variability in Vc, final estimate ([6]; final population PK model): 53.76 % CV
Exponent for power function effect of age on Q (population mean) [6, 21]: −0.342
Exponent for power function effect of age on Vp (population mean) [6, 21]: −0.280
Inter-compartmental CL (Q) (population mean) [6, 21]: 63.5 L/h
Vc, volume of the central compartment (population mean) [6, 21]: 8.49 L
Vp, volume of the peripheral compartment (population mean) [6, 21]: 14.7 L
Magnitude of Interindividual Variability in CL, final estimate ([6]; final population PK model, cell spans CL rows): 37.01 % CV
Magnitude of Interindividual Variability in Q, final estimate ([6]; final population PK model, cell spans Q rows): 161.25 % CV
Magnitude of Interindividual Variability in Vp, final estimate ([6]; final population PK model, cell spans Vp rows): 51.19 % CV
CL, Predicted Typical Value ([6]; 1 month-<6 months): 7.51 L/h
Volume of Distribution, Predicted Typical Value ([6]; 1 month-<6 months): 18.75 L
Weight-Adjusted CL, Predicted Typical Value ([6]; 1 month-<6 months): 20.9 mL/min/kg
Weight-Adjusted V, Predicted Typical Value ([6]; 1 month-<6 months): 3.133 L/kg
CL, Predicted Typical Value ([6]; 2 y-<6 y): 14.01 L/h
Volume of Distribution, Predicted Typical Value ([6]; 2 y-<6 y): 28.09 L
Weight-Adjusted CL, Predicted Typical Value ([6]; 2 y-<6 y): 16.98 mL/min/kg
Weight-Adjusted V, Predicted Typical Value ([6]; 2 y-<6 y): 2.043 L/kg
CL, Predicted Typical Value ([6]; 6 months-<12 months): 8.69 L/h
Volume of Distribution, Predicted Typical Value ([6]; 6 months-<12 months): 19.95 L
Weight-Adjusted CL, Predicted Typical Value ([6]; 6 months-<12 months): 19.92 mL/min/kg
Weight-Adjusted V, Predicted Typical Value ([6]; 6 months-<12 months): 2.742 L/kg
CL, Predicted Typical Value ([6]; 6 y-<17 y): 25.27 L/h
Volume of Distribution, Predicted Typical Value ([6]; 6 y-<17 y): 52.97 L
Weight-Adjusted CL, Predicted Typical Value ([6]; 6 y-<17 y): 14 mL/min/kg
Weight-Adjusted V, Predicted Typical Value ([6]; 6 y-<17 y): 1.754 L/kg
CL, Predicted Typical Value ([6]; 12 months-<24 months): 11.12 L/h
Volume of Distribution, Predicted Typical Value ([6]; 12 months-<24 months): 23.85 L
Weight-Adjusted CL, Predicted Typical Value ([6]; 12 months-<24 months): 18.35 mL/min/kg
Weight-Adjusted V, Predicted Typical Value ([6]; 12 months-<24 months): 2.361 L/kg
CL, Predicted Typical Value ([6]; 28 weeks GA-<1 month): 2.69 L/h
Volume of Distribution, Predicted Typical Value ([6]; 28 weeks GA-<1 month): 16.21 L
Weight-Adjusted CL, Predicted Typical Value ([6]; 28 weeks GA-<1 month): 15.6 mL/min/kg
Weight-Adjusted V, Predicted Typical Value ([6]; 28 weeks GA-<1 month): 5.618 L/kg
clearance (clinical [7]; 0.05 ug/kg, CLw (clearance)): 6.83 mL/min/kg
AUC(0-t) (clinical [7]; AUC (0-Last)): 0.708 ng·h/mL
clearance (clinical [7]; CLw (weight adjusted clearance)): 4.83 mL/min/kg
Vd (clinical [7]; Vss): 6.25 L
half-life (clinical [7]; elimination t1/2): 4.77 h
half-life (clinical [7]; t1/2): 8.32 h
clearance (clinical [8]; Cl Mean): 171 mL/min
clearance (clinical [8]; Cl Median): 162 mL/min
Vd (clinical [8]; Vd Mean): 30.5 L
Vd (clinical [8]; Vd Median): 29.1 L
half-life (clinical [8]; apparent (mean) t1/2): 2.33 h
half-life (clinical [8]; t1/2, Mean): 2.33 h
half-life (clinical [8]; t1/2 Median): 1.87 h
clearance (clinical [9]; CL, Population Mean): 308 mL/min
clearance (clinical [9]; CL, model value): 142 mL/min
clearance (clinical [9]; Weight-Adjusted CL, Geo. Mean of individual Bayesian estimates): 16.5 mL/min/kg
clearance (clinical [9]; Weight-Adjusted CL, Geometric Mean): 16.5 mL/min/kg
half-life (clinical [9]; terminal elimination (β) half-life): 1.6 h
Tmax (clinical [10]; after the start of the maintenance infusion): 0.68 h
Tmax (clinical [10]; before the end of the loading dose): ~0.08 h
clearance (clinical [10]; clearance): ~95 mL/min
half-life (clinical [10]; half-life): ~2 h
half-life (clinical [10]; t1/2, Mean): 1.96 h
clearance (clinical [10]; weight adjusted CL): ~10 mL/min/kg
Vd (clinical [10]; weight adjusted Vd): ~1.6 L/kg
pKa [11]: 7
solubility in water [11]: freely soluble in water
pH of the isotonic solution ([11]; study drug as supplied): 4.5
CL [12, 22]: 7.26 L/h
Q [12, 22]: 24.1 L/h
Vc [12, 22]: 8.4 L
Vp [12, 22]: 10.2 L
CL [12, 23]: 39.4 L/h
volume of distribution [12, 23]: 152 L
CL standardized to a 70-kg adult [12, 24]: 42.1 L/h
volume of distribution standardized to a 70-kg adult [12, 24]: 125.3 L
volume of distribution ([12]; product label for Precedex): 118 L
CL ([12]; product label for Precedex, mean body weight 72 kg): 39 L/h
CL [12, 25]: 35.8 L/h
volume of distribution [12, 25]: 112.7 L

Reference: patent US20130096170A1 (priority 2011, published 2013)
